The values below come from patent publication US6153604A, “Therapeutic substituted guanidines” (Cambridge NeuroScience, Inc., priority 1995, dated 2000).

Where a name gives a salt, the structure may show the parent alone.

Experiment [1] relates to NMDA-induced excitotoxic damage to the central nervous system. Kind of experiment: In vivo assay for protection against NMDA-induced excitotoxic damage to the central nervous system. Set-up: species or system rat (Day 7 neonatal). The conditions noted are these: Rattus norvegicus, ip, 120 h, intraperitoneal; for inhibition in vivo at 60 µmol/kg: dose 60 μmol/kg; for inhibition in vivo at 60 µmol/kg / inhibition in vivo at 30 µmol/kg: read-out: % maximum protection per dose; for ED80: 15 minutes after intrastriatal NMDA, neonatal rats, read-out: ED80 (dose that provides 80% of the maximum protection); for inhibition in vivo at 30 µmol/kg: dose 30 μmol/kg. On the procedure:
In vivo assay for protection against NMDA-induced excitotoxic damage to the central nervous system.
The in vivo potency of compounds of the present invention is exemplified by data summarized in Table II and obtained pursuant to the following protocol. Day 7 neonatal rats were anesthetized with metophane inhalation anesthetic for 4-6 minutes, inserted into a stereotaxic apparatus and injected intrastriatally with 0.5 μl of 50 mM NMDA (N-methyl-D-aspartate). 15 minutes after the NMDA injection, the rat pups were injected intraperitoneally with 10, 30 or 60 μmol/kg of the NMDA antagonist of the structure specified in Table II Animals were returned to their mother and watched for signs of distress (e.g., respiratory depression). After five days, the animals were anesthetized with CO2 and then decapitated; their brains were removed and weighed to determine the degree of neuroprotection. Because NMDA injection results in a retardation of brain growth (including necrosis), effects can be measured gravimetrically in terms of the weights of injected and non-injected hemispheres. Two groups of rat pups were used at each of three doses of a compound to generate a neuroprotection dose-response curve. The chemical structure of each of the tested compounds is specified below with the general formula of the compounds shown at the top of Table II with particular substituent groups specified within that Table. Table II discloses 1) the ED80 for each tested compound, i.e., the dose of a compound that provides 80% of the maximum protection against damage to the central nervous system; and 2) the percent (%) maximum protection against damage to the central nervous system provided by the indicated dose expressed as μmol per kilogram bodyweight of the test subject.

For experiment [2], the system named is rat model of Korsakoff's disease. The conditions noted are these: pretreatment of animals; cited from earlier work.

For `Cc1ccc(Cl)c(NC(=N)Nc2cccc3ccccc23)c1` [Cmpd. No. 10 (Table II), N-(1-Naphthyl)-N'(2-chloro-5-methylphenyl)guanidine hydrochloride], in experiment [1], the inhibition in vivo at 60 µmol/kg came to 96.4% and the ED80 was 45.8 µmol/kg.
For `Cc1ccc(C)c(N(C)C(=N)Nc2cccc3ccccc23)c1` [Cmpd. No. 7 (Table II), N-(1-Naphthyl)-N'-(2,5-dimethylphenyl)-N'-methylguanidine hydrochloride], in experiment [1], the inhibition in vivo at 30 µmol/kg is 86% and the ED80 was determined as 22.5 µmol/kg.
As for `CCc1ccc(Cl)c(NC(=N)Nc2cccc3cccnc23)c1` [Cmpd. No. 11 (Table II), N-(8-Quinolinyl)-N'-(2-chloro-5-ethylphenyl)guanidine hydrochloride], in experiment [1], the inhibition in vivo at 30 µmol/kg is 94.5% and the ED80 turned out to be 14.2 µmol/kg.
As for `C[C@]12N[C@H](Cc3ccccc31)c1ccccc12` [MK-801, (+)-5-methyl-10,11-dihydro-5H-dibenzo[a,d]cycloheptene-5,10-imine], in experiment [2], the “extent of cell loss, hemorrhages and amino acid changes” value is “markedly attenuates the extent of cell loss, hemorrhages and amino acid changes”.
Regarding `N=C(Nc1cc(C(F)(F)F)ccc1F)Nc1cccc2ccccc12` [Cmpd. No. 8 (Table II), N-(1-Naphthyl)-N'-(2-fluoro-5-trifluoromethylphenyl)guanidine hydrochloride], in experiment [1], the inhibition in vivo at 60 µmol/kg amounted to 96% and the ED80 turned out to be 28.8 µmol/kg.
As to `CCc1cccc(NC(=N)Nc2cc(C(F)(F)F)ccc2F)c1` [Cmpd. No. 3 (Table II), N-(3-Ethylphenyl)-N'-(2-fluoro-5-trifluoromethylphenyl)guanidine hydrochloride], in experiment [1], the inhibition in vivo at 60 µmol/kg stood at 76.6% and the ED80 is 15.2 µmol/kg.
The matching figures for `CCc1cccc(N(C)C(=N)Nc2cc(CC)ccc2Cl)c1` [Cmpd. No. 4 (Table II), N-(3-Ethylphenyl)-N-methyl-N'-(2-chloro-5-ethylphenyl)guanidine hydrochloride]: 77.8% and 19.8 µmol/kg.
For the compound `CCc1ccc(Cl)c(N(C)C(=N)Nc2cccc3ccccc23)c1` [Cmpd. No. 5 (Table II), N-(1-Naphthyl)-N'-(2-chloro-5-ethylphenyl)-N'-methylguanidine hydrochloride], in experiment [1], the inhibition in vivo at 60 µmol/kg turned out to be 92.2% and the ED80 came out at 22.3 µmol/kg.
Consider `CSc1ccc(Cl)c(NC(=N)Nc2cccc3ccccc23)c1` [Cmpd. No. 9 (Table II), N-(1-Naphthyl)-N'-(2-chloro-5-thiomethylphenyl)guanidine hydrochloride], for which, in experiment [1], the inhibition in vivo at 60 µmol/kg turned out to be 92.7% and the ED80 was 10.8 µmol/kg.
`CCc1cccc(N(C)C(=N)Nc2cc(Cl)ccc2Cl)c1` [Cmpd. No. 1 (Table II), N-(3-ethylphenyl)-N-methyl-N'-(2,5-dichlorophenyl)guanidine hydrochloride]: in experiment [1], the inhibition in vivo at 60 µmol/kg amounted to 88.8% and the ED80 was 36.4 µmol/kg.
As to `CCc1cccc(N(C)C(=N)Nc2cc(Br)ccc2Br)c1` [Cmpd. No. 2 (Table II), N-(3-ethylphenyl)-N-methyl-N'-(2,5-dibromophenyl)guanidine hydrochloride], in experiment [1], the inhibition in vivo at 60 µmol/kg came out at 93.8% and the ED80 was 13.4 µmol/kg.
